According to publication PMC12064818, “A general assay platform to study protein pharmacology using ligand-dependent structural dynamics” (Nature Communications, 2025):

Target: T1, FLuc-C-HiBiT (Photinus pyralis, UniProt P08659)
T1 construct: firefly luciferase with C-terminal HiBiT tag, E. coli expressed
Assay: biochemical
Settings: enzyme activity, 10 uM ATP; read-out: IC50 or SDR50 (mM) / FLuc E

T1 sequence (P08659 whole entry, looked up): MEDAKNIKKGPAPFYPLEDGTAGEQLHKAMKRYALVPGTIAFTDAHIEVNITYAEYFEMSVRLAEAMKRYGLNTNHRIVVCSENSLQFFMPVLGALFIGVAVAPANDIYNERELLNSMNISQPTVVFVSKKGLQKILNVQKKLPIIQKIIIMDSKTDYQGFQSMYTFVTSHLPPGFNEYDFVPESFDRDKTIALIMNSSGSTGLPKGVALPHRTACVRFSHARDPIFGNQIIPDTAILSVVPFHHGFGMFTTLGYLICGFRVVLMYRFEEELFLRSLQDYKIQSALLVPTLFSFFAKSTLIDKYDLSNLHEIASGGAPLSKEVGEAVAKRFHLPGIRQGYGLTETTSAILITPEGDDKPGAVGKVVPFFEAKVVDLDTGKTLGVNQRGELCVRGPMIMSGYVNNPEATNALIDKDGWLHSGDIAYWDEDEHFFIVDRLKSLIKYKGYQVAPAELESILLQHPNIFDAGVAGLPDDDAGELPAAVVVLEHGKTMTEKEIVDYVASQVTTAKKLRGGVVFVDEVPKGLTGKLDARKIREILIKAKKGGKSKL

Question: With CC(CNC(=O)C1CCN(C(=O)c2ncn3c2COC(c2ccccc2)C3)CC1)c1ccccc1 (stereo not shown) [compound 00449795] as the molecule, how does the IC50 read?
Answer: Its IC50 is 0.00248 mM.
